PubChem BioAssay AID248 (DTP/NCI, 2004)
Toxic doses and inconclusive results are not listed.

Test system: L1210 leukemia ip in BDF1 mice, survival T/C
Assay: NCI In Vivo Anticancer Drug Screen. Data for tumor model L1210 Leukemia (intraperitoneal) in B6D2F1 (BDF1) mice
Details: endpoint: mean survival time, higher = longer survival
Summary of the method: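 Survival endpoint. Drug-treated group vs vehicle group, expressed as T divided by C. Tumor passaged by transplantation.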

[1] = dose: 100.0 mg/kg/injection, schedule: Q01DX001 (ip), vehicle: saline
[2] = dose: 100.0 mg/kg/injection, schedule: Q01DX009 (ip), vehicle: saline with Tween-80
[3] = dose: 100.0 mg/kg/injection, schedule: Q04DX003 (ip), vehicle: saline
[4] = dose: 200.0 mg/kg/injection, schedule: Q01DX001 (ip), vehicle: saline
[5] = dose: 200.0 mg/kg/injection, schedule: Q01DX009 (ip), vehicle: saline with Tween-80
[6] = dose: 200.0 mg/kg/injection, schedule: Q04DX003 (ip), vehicle: saline
[7] = dose: 400.0 mg/kg/injection, schedule: Q01DX009 (ip), vehicle: saline with Tween-80
[8] = dose: 400.0 mg/kg/injection, schedule: Q04DX003 (ip), vehicle: saline
[9] = dose: 100.0 mg/kg/injection, schedule: Q04DX003 (ip), vehicle: Klucel (hydroxypropylcellulose) (HPC)
[10] = dose: 200.0 mg/kg/injection, schedule: Q04DX003 (ip), vehicle: Klucel (hydroxypropylcellulose) (HPC)
[11] = dose: 400.0 mg/kg/injection, schedule: Q04DX003 (ip), vehicle: Klucel (hydroxypropylcellulose) (HPC)
[12] = dose: 100.0 mg/kg/injection, schedule: Q04DX003 (ip), vehicle: saline with Tween-80
[13] = dose: 200.0 mg/kg/injection, schedule: Q04DX003 (ip), vehicle: saline with Tween-80
[14] = dose: 400.0 mg/kg/injection, schedule: Q04DX003 (ip), vehicle: saline with Tween-80

Structure (SMILES): CCC1(O)C(=O)OCc2c1cc(-c1ccccc1)n(C)c2=O (centres undefined)
- T/C (dose: 25.0 mg/kg/injection, schedule: Q01DX001 (ip), vehicle: other): 101 % of control
- T/C (dose: 50.0 mg/kg/injection, schedule: Q01DX001 (ip), vehicle: other): 113 % of control
- T/C (dose: 100.0 mg/kg/injection, schedule: Q01DX001 (ip), vehicle: other): 101 % of control
- T/C (dose: 200.0 mg/kg/injection, schedule: Q01DX001 (ip), vehicle: other): 98 % of control

Structure (SMILES): OCC(O)C(O)C(O)C(O)C(O)CO (centres undefined)
- T/C [1]: 98 % of control
- T/C [2]: 96 % of control
- T/C [3]: 94 % of control
- T/C [4]: 106 % of control
- T/C [5]: 110 % of control
- T/C [6]: 97 % of control
- T/C (dose: 400.0 mg/kg/injection, schedule: Q01DX001 (ip), vehicle: saline): 95 % of control
- T/C [7]: 90 % of control
- T/C [8]: 106 % of control

Structure (SMILES): CC(C(=O)c1ccccc1)C(O)(C(F)(F)Cl)C(F)(F)Cl (centres undefined)
- T/C [9]: 91 % of control
- T/C [10]: 91 % of control
- T/C [11]: 91 % of control

Structure (SMILES): c1ccc2c(c1)Cc1c(-c3ccncc3)n[nH]c1-2
- T/C [12]: 93 % of control
- T/C [13]: 96 % of control
- T/C [14]: 86 % of control

Structure (SMILES): O=C(O)CCCCSc1ncnc2nc[nH]c12
- T/C (dose: 15.0 mg/kg/injection, schedule: Q01DX009 (ip), vehicle: saline with Tween-80): 106 % of control
- T/C (dose: 15.0 mg/kg/injection, schedule: Q01DX009 (oral), vehicle: saline with Tween-80): 98 % of control
- T/C (dose: 30.0 mg/kg/injection, schedule: Q01DX009 (ip), vehicle: saline with Tween-80): 103 % of control
- T/C (dose: 30.0 mg/kg/injection, schedule: Q01DX009 (oral), vehicle: saline with Tween-80): 86 % of control
- T/C (dose: 60.0 mg/kg/injection, schedule: Q01DX009 (ip), vehicle: saline with Tween-80): 92 % of control
- T/C (dose: 60.0 mg/kg/injection, schedule: Q01DX009 (oral), vehicle: saline with Tween-80): 95 % of control
- T/C (dose: 100.0 mg/kg/injection, schedule: Q01DX009 (ip), vehicle: Klucel (hydroxypropylcellulose) (HPC)): 113 % of control
- T/C [9]: 107 % of control
- T/C [12]: 103 % of control
- T/C (dose: 120.0 mg/kg/injection, schedule: Q01DX009 (ip), vehicle: saline with Tween-80): 123 % of control
- T/C (dose: 120.0 mg/kg/injection, schedule: Q01DX009 (oral), vehicle: saline with Tween-80): 109 % of control
- T/C (dose: 200.0 mg/kg/injection, schedule: Q01DX009 (ip), vehicle: Klucel (hydroxypropylcellulose) (HPC)): 101 % of control
- T/C [10]: 102 % of control
- T/C [13]: 104 % of control
- T/C (dose: 240.0 mg/kg/injection, schedule: Q01DX009 (ip), vehicle: saline with Tween-80): 105 % of control
- T/C (dose: 240.0 mg/kg/injection, schedule: Q01DX009 (oral), vehicle: saline with Tween-80): 91 % of control
- T/C (dose: 400.0 mg/kg/injection, schedule: Q01DX009 (ip), vehicle: Klucel (hydroxypropylcellulose) (HPC)): 116 % of control
- T/C [11]: 115 % of control
- T/C [14]: 103 % of control
- T/C (dose: 480.0 mg/kg/injection, schedule: Q01DX009 (ip), vehicle: saline with Tween-80): 118 % of control
- T/C (dose: 480.0 mg/kg/injection, schedule: Q01DX009 (oral), vehicle: saline with Tween-80): 100 % of control
- T/C (dose: 720.0 mg/kg/injection, schedule: Q01DX009 (oral), vehicle: saline with Tween-80): 100 % of control

Structure (SMILES): N#Cc1ccc(NC(=O)N(CCCl)N=O)cc1
- T/C (dose: 1.0 mg/kg/injection, schedule: Q01DX009 (ip), vehicle: saline): 150 % of control
- T/C (dose: 1.56 mg/kg/injection, schedule: Q01DX009 (ip), vehicle: saline): 161 % of control
- T/C (dose: 6.25 mg/kg/injection, schedule: Q01DX Z (ip), vehicle: carboxymethylcellulose (CMC)): 160 % of control
- T/C (dose: 12.5 mg/kg/injection, schedule: Q01DX Z (ip), vehicle: carboxymethylcellulose (CMC)): 118 % of control
- T/C (dose: 25.0 mg/kg/injection, schedule: Q01DX Z (ip), vehicle: carboxymethylcellulose (CMC)): 104 % of control
- T/C (dose: 37.5 mg/kg/injection, schedule: Q01DX001 (ip), vehicle: carboxymethylcellulose (CMC)): 152 % of control
- T/C (dose: 75.0 mg/kg/injection, schedule: Q01DX001 (ip), vehicle: carboxymethylcellulose (CMC)): 153 % of control
- T/C (dose: 150.0 mg/kg/injection, schedule: Q01DX001 (ip), vehicle: carboxymethylcellulose (CMC)): 177 % of control

Structure (SMILES): CC(=O)c1ccccc1C(C)c1ccc2cccc(F)c2c1 (centres undefined)
- T/C (dose: 75.0 mg/kg/injection, schedule: Q01DX001 (ip), vehicle: Klucel (hydroxypropylcellulose) (HPC)): 96 % of control
- T/C (dose: 150.0 mg/kg/injection, schedule: Q01DX001 (ip), vehicle: Klucel (hydroxypropylcellulose) (HPC)): 100 % of control
- T/C (dose: 300.0 mg/kg/injection, schedule: Q01DX001 (ip), vehicle: Klucel (hydroxypropylcellulose) (HPC)): 102 % of control

Structure (SMILES): CN1CCN(C(=O)N2c3ccccc3Sc3ccccc32)CC1
- T/C (dose: 12.5 mg/kg/injection, schedule: Q04DX003 (ip), vehicle: saline): 99 % of control
- T/C (dose: 25.0 mg/kg/injection, schedule: Q04DX003 (ip), vehicle: saline): 95 % of control
- T/C (dose: 50.0 mg/kg/injection, schedule: Q04DX003 (ip), vehicle: saline): 101 % of control
- T/C [3]: 100 % of control
- T/C [6]: 92 % of control

Structure (SMILES): CC1OC2COC(C)OC2C(C(O)COC(=O)c2ccc([N+](=O)[O-])cc2)O1 (centres undefined)
- T/C (dose: 100.0 mg/kg/injection, schedule: Q01DX009 (ip), vehicle: saline): 98 % of control
- T/C [3]: 110 % of control
- T/C (dose: 200.0 mg/kg/injection, schedule: Q01DX009 (ip), vehicle: saline): 98 % of control
- T/C [6]: 104 % of control
- T/C (dose: 400.0 mg/kg/injection, schedule: Q01DX009 (ip), vehicle: saline): 103 % of control
- T/C [8]: 101 % of control

Structure (SMILES): c1cc2c3c(ccc4c3c1CCC4)CCC2
- T/C (dose: 100.0 mg/kg/injection, schedule: Q04DX002 (ip), vehicle: gum acacia): 91 % of control
- T/C (dose: 200.0 mg/kg/injection, schedule: Q04DX002 (ip), vehicle: gum acacia): 100 % of control
- T/C (dose: 400.0 mg/kg/injection, schedule: Q04DX002 (ip), vehicle: gum acacia): 95 % of control

Structure (SMILES): CCCCc1cc(O)c2c(c1O)C(=O)c1ccccc1C2=O
- T/C (dose: 100.0 mg/kg/injection, schedule: Q01DX001 (ip), vehicle: saline sonified): 91 % of control
- T/C (dose: 100.0 mg/kg/injection, schedule: Q01DX009 (ip), vehicle: saline sonified): 97 % of control
- T/C (dose: 200.0 mg/kg/injection, schedule: Q01DX001 (ip), vehicle: saline sonified): 86 % of control
- T/C (dose: 200.0 mg/kg/injection, schedule: Q01DX009 (ip), vehicle: saline sonified): 102 % of control
- T/C (dose: 400.0 mg/kg/injection, schedule: Q01DX001 (ip), vehicle: saline sonified): 94 % of control
- T/C (dose: 400.0 mg/kg/injection, schedule: Q01DX009 (ip), vehicle: saline sonified): 96 % of control

Structure (SMILES): CCOc1ccc(N=Nc2c(O)n(-c3ccccc3OC)c(=S)n(-c3ccccc3OC)c2=O)cc1
- T/C (dose: 75.0 mg/kg/injection, schedule: Q01DX003 (ip), vehicle: Klucel (hydroxypropylcellulose) (HPC)): 96 % of control
- T/C (dose: 100.0 mg/kg/injection, schedule: Q01DX003 (ip), vehicle: Klucel (hydroxypropylcellulose) (HPC)): 96 % of control
- T/C (dose: 200.0 mg/kg/injection, schedule: Q01DX003 (ip), vehicle: Klucel (hydroxypropylcellulose) (HPC)): 91 % of control

Structure (SMILES): COc1cc(CC(=O)O)ccc1OCc1ccccc1
- T/C [2]: 101 % of control
- T/C [5]: 101 % of control
- T/C [7]: 116 % of control

Structure (SMILES): O=C1Sc2ccccc2C1=O
- T/C [1]: 94 % of control
- T/C [9]: 91 % of control
- T/C [4]: 103 % of control
- T/C [10]: 94 % of control
- T/C [11]: 102 % of control

Structure (SMILES): COc1ccc2ccccc2c1C(=O)CCC(=O)O
- T/C (dose: 87.0 mg/kg/injection, schedule: Q04DX003 (ip), vehicle: Klucel (hydroxypropylcellulose) (HPC)): 97 % of control
- T/C (dose: 175.0 mg/kg/injection, schedule: Q04DX003 (ip), vehicle: Klucel (hydroxypropylcellulose) (HPC)): 93 % of control
- T/C (dose: 350.0 mg/kg/injection, schedule: Q04DX003 (ip), vehicle: Klucel (hydroxypropylcellulose) (HPC)): 102 % of control

Structure (SMILES): CCCCCCCCCCCCCCCCC(=O)CC
- T/C [9]: 96 % of control
- T/C [10]: 91 % of control
- T/C [11]: 92 % of control
